Test results as given in ChEMBL document CHEMBL3244288, “Antimalarials. 11. Synthesis of 3- and 5-aminoquinolines as potential antimalarials” (J Med Chem, 1979).
Activity calls are given as the source filed them. The calls are words filed in the database; no cut-off is given here.

Legend:
Type in all cases: functional, organism-based
[1] = test system: Plasmodium berghei; assay: Antimalarial activity against Plasmodium berghei infected in mouse assessed as increase in mean survival time at 640 mg/kg, sc; design: dose 640 mg/kg
[2] = test system: Plasmodium cynomolgi; assay: Antimalarial activity against sporozoite form of Plasmodium cynomolgi infected in juvenile rhesus monkey assessed as radical curative effect at 10 mg/kg, administered 6 doses; design: dose 10 mg/kg
[3] = test system: Leishmania donovani; assay: Antileishmanial activity against Leishmania donovani infected in golden hamster administered for 8 days
[4] = test system: Plasmodium cynomolgi; assay: Antimalarial activity against sporozoite form of Plasmodium cynomolgi infected in juvenile rhesus monkey assessed as radical curative effect

Structure (SMILES)	Activity [1]	Activity [2]	Activity [3]	Activity [4]
COc1ccc(NC(C)CCCN)c2cccnc12 (configuration not stated)	inactive	Active	inactive	
COc1cc(NC(C)CCCN)c2ncccc2c1 (configuration not stated)				Active
CCN(CC)CCCC(C)Nc1ccc(OC)c2ncccc12 (configuration not stated)	inactive		inactive	inactive
COc1ccc2ncc(NC(C)CCCN)c(C)c2c1 (configuration not stated)	inactive		inactive	
COc1cc2ncc(NC(C)CCCN)c(C)c2cc1OC (configuration not stated)	inactive		inactive	
COc1cc(NC(C)CCCN)c2nccc(C)c2c1 (configuration not stated)				Active
CCN(CC)CCNc1ccc(OC)c2ncccc12	inactive		inactive	inactive
COc1cc2cc(NC(C)CCCN)cnc2cc1OC (configuration not stated)	inactive		inactive	
